The values that follow come from US9963433B2, “Anticancer drugs including the chemical structures of an androgen receptor ligand and a histone deacetylase inhibitor” (Wayne State University, priority 2016, dated 2018).

In assay [1] the test system is TMPRSS2 mRNA (AR target gene) in C4-2 cells. Kind of assay: Inhibition of R1881 activation of TMPRSS2 mRNA in C4-2 cells. The assay is classed as cell-based. The note with it: hormone depleted 96 h, R1881 1 nM, compound 1-10 μM, 48 h, FIG. 3B. How it is done:
(§1) Cell Culture and Reagents. LNCaP and 22Rv1 cell lines were from American Type Culture Collection (Manassas, Va.). C4-2 cells were kindly provided by Dr. Edwin Sanchez (University of Toledo). […] R1881 was kindly provided by Dr. Stephan Patrick (Karmanos Cancer Institute). All experiments were conducted using phenol-red free growth media.
(§2) RNA isolation, Reverse Transcription, and Real Time PCR. Total RNA was isolated from cells using the RNeasy Mini Kit (Qiagen). Reverse transcription PCR was then performed using 500 ng of total RNA with random primers and using the high-capacity complementary DNA Archive kit (Applied Biosystems). The complementary DNA from this reaction was measured using quantitative real time PCR using the StepONE Plus Real Time PCR system (Life Technologies Corporation, Carlsbad, Calif.). All reactions were performed in triplicate and normalized to glyceraldehyde-3-phosphate-dehydrogenase values in the same samples.

The subject of the next assay is 22Rv1 cells. The assay can be described thus: MTT cell viability assay, 22Rv1 cells. The assay is classed as cell-based. The note with it: Day 3, 0.1 μM-10 μM, FIG. 6E; for EC50: Homo sapiens, 22Rv1, 72 h, read-out: EC50, inhibition of growth of 22Rv1 cells. How it is done: (§3) (6A) C4-2 cells were seeded in 96-well plates and 24 h later, they were treated with the indicated compounds (0.1 μM-10 μM) or with vehicle (DMSO). Cell viability was measured by the MTT assay on Days 0 and 3 of treatment. EC50 values were calculated from nonlinear regression plots using GraphPad Prism5 software. […] Cell viability was measured by the MTT assay on Days 0 and 3 of treatment. […] Cell viability was measured by the MTT assay on Days 0 and 3 of treatment. […] (6D) 22Rv1 cells were infected with AR shRNA lentivirus, or control shRNA. 72 h after infection, cells were plated and viable cells were measured by the MTT assay on the indicated days (6D, bottom). Cells were also harvested for western blot analysis and probed with antibody to AR, which was also reactive with the AR splice variant AR-V7 (6D, top). (6E) 22Rv1 cells were seeded in 96-well plates and 24 h later, they were treated with the indicated compounds (0.1 μM-10 μM) or with vehicle (DMSO). Cell viability was measured by the MTT assay on Days 0 and 3 of treatment. EC50 values were calculated from nonlinear regression plots using GraphPad Prism5 software.
(§4) Cell Proliferation Assay. Cells were trypsinized and 6000 cells/well were seeded in 96-well plates coated with poly-D-lysine. The cells were seeded in phenol red-free medium supplemented with 10% FBS, 100 units/ml penicillin, 100 μg/ml streptomycin, 2 mM L-glutamine mixture and sodium pyruvate (1 mM) for C4-2 cells and phenol red-free medium supplemented with 10% FBS, 100 units/ml penicillin, 100 μg/ml streptomycin and 2 mM L-glutamine mixture for 22Rv1 cells. The cells were grown at 37° C. in 5% CO2. Twenty four hours after seeding in the 96-well plates, the cells were treated with indicated compound or DMSO (vehicle). The culture medium was not changed during the time course of the assay. On Day zero and on Day 3, cell viability was determined using the MTT assay. MTT (10 μL, 5 mg/mL) was added to each well and incubated for 2 h at 37° C. The formazan crystal sediments were dissolved in 100 μL of DMSO, and the absorbance at 570 nm was measured using the BioTek Synergy 2 Microplate Reader (BioTek, Winooski, Vt.). […] IC50 values were calculated from nonlinear […] plots using GraphPad Prism5 software.

For assay [2], the system named is HDACs from Hela cell nuclear extract. The assay is classed as biochemical. The note with it: for IC50: cell-free, FIG. 2A, read-out: IC50, inhibition of HDACs enriched in the Hela nuclear extract. The method, then: FIGS. 2A-2F show measurement of intrinsic and in situ HDACi activities. […] IC50 values were calculated from nonlinear regression plots using GraphPad Prism5 software. […] Recombinant HDAC6 was incubated with each drug at the indicated concentrations. IC50 values were calculated from nonlinear regression plots using GraphPad Prism5 software.
HDAC activity assay. In vitro HDAC inhibition was measured by using the HDAC fluorimetric assay/drug discovery Kit (Enzo Life Sciences, BML-AK500) and the HDAC6 fluorometric drug discovery kit (Enzo Life Sciences, BML-AK516) following the manufacturer's protocols and instructions. IC50 values were calculated from nonlinear […] plots using GraphPad Prism5 software.
HDAC1 and HDAC2 are enriched in nuclear extracts whereas HDAC6 is a cytosolic enzyme that is the principal modulator of the acetylation status of Hsp90. […] Again, TSA served as the positive control in FIG. 2D.

Another assay concerns p21 mRNA in LNCaP cells. The assay can be described thus: p21 mRNA induction in LNCaP cells. The note with it: 10 μM, 48 h, FIG. 5A.
Another assay deals with C4-2 cells. The assay can be described thus: MTT cell viability assay, C4-2 cells. The assay is classed as cell-based. The conditions noted are these: for EC50: C4-2, 72 h, 0.1 μM-10 μM, read-out: EC50, inhibition of C4-2 cell growth; for cell death (viable cells below the number on Day 0): C4-2 cells, 5 μM, MTT Day 3 relative to Day 0, FIG. 6C. How it is done:
as §3, §4
On the technique in general: Formazan colour is commonly taken as a measure of viable cells.

For the next assay, the system named is Hsp90. Kind of assay: Western blot of Hsp90 protein in C4-2 cells. The note with it: 1 μM to 10 μM, 24 h, relative to GAPDH, FIG. 4B. (In general: Immunoblotting shows a protein as a band on a membrane.)
For assay [3], the system named is KLK3 mRNA (AR target gene) in C4-2 cells. The assay can be described thus: Inhibition of R1881 activation of KLK3 mRNA in C4-2 cells. The assay is classed as cell-based. The note with it: hormone depleted 96 h, R1881 1 nM, compound 1-10 μM, 48 h, FIG. 3A. How it is done:
as §1, §2

For assay [4], the system named is 55 KDa polypeptide (putative Hsp90 fragment). Kind of assay: Western blot of acetylated lysine in C4-2 cells. The note with it: 24 h, acetylated lysine antibody, FIG. 4C.
Procedure: Cells were then harvested for western blot analysis using antibody to AR (4A), HSP90 (4B), Acetyl-Lysine (4C) or GAPDH (loading control). ImageJ software was used to determine the intensities of the bands relative to the vehicle control for each protein. The values were then divided by the values for GAPDH within the same samples.
Western Blot Analysis. Cells were washed once with phosphate buffered saline (PBS) and then lysed with RIPA buffer (150 mM NaCl, 1% Nonidet P-40, 0.5% sodium deoxycholate, 0.1% SDS, 50 mM Tris of pH 8.0) containing a protease inhibitor cocktail (Pierce, Thermo Fisher Scientific). The cell lysates were then incubated on ice for 40 minutes. Total protein concentrations were estimated using the Bradford Assay (Bio-Rad). Protein samples (10-40 ug) were heated at 95° C. for 5 minutes and resolved by electrophoresis on 8% polyacrylamide-SDS gels and electrophoretically transferred to PVDF membranes (Millipore, Billerica, Mass.). The membranes were then probed overnight at 4° C. with the appropriate primary antibody followed by the appropriate horseradish peroxidase-conjugated secondary antibody.

In general, EC50 refers to the concentration that produces a half-maximal response. The IC50 is the concentration that inhibits the measured activity by half.

With `CC1(C)C(=O)N(c2ccc(C#N)c(C(F)(F)F)c2)C(=S)N1c1ccc(C(=O)NCCCCCCC(=O)NO)c(F)c1` [Compound 2-75, 4-(3-(4-cyano-3-(trifluoromethyl)phenyl)-5,5-dimethyl-4-oxo-2-thioxoimidazolidin-1-yl)-2-fluoro-N-(7-(hydroxyamino)-7-oxoheptyl)benzamide], the “inhibition of activation of TMPRSS2 by R1881” value in assay [1] is on record as “better inhibitors of gene activation by androgen compared with either Enz or SAHA”. The EC50 came to 4680 nM in the assay on 22Rv1 cells and 1620 nM with C4-2 cells (MTT, Day 3, FIG. 6A). The IC50 in assay [2] was 1080 nM. Besides, the “p21 mRNA expression” value in the assay with p21 mRNA in LNCaP cells is on record as “induced p21 to a greater extent than SAHA”. In addition, the “cell death (viable cells below the number on Day 0)” value in the assay with C4-2 cells is given as “caused cell death”. Besides, the “Hsp90 protein level (degradation)” value in the assay on Hsp90 is reported as “more marked reduction in Hsp90”. Also, the “inhibition of activation of KLK3 by R1881” value in assay [3] is given as “better inhibitors of gene activation by androgen compared with either Enz or SAHA”. For the same compound, the “hyper-acetylation of a 55 KDa polypeptide” value (from here on “hyper-acetylation”) in assay [4] was “hyper-acetylation of a 55 KDa polypeptide”.

With `CC1(C)C(=O)N(c2ccc(C#N)c(C(F)(F)F)c2)C(=S)N1c1ccc(/C=C/C(=O)NO)c(F)c1` [Compound 1005, (E)-3-(4-(3-(4-cyano-3-(trifluoromethyl)phenyl)-5,5-dimethyl-4-oxo-2-thioxoimidazolidin-1-yl)-2-fluorophenyl)-N-hydroxyacrylamide], the “inhibition of activation of TMPRSS2 by R1881” value in assay [1] was “better inhibitors of gene activation by androgen compared with either Enz or SAHA”. For the same compound, the EC50 worked out at 4170 nM in the assay with 22Rv1 cells and 3290 nM with C4-2 cells (MTT, Day 3, FIG. 6A). Moreover, in assay [2], the IC50 worked out at 2410 nM. Also, the “p21 mRNA expression” value with p21 mRNA in LNCaP cells is listed as “induced p21 to a greater extent than SAHA”. In the assay on C4-2 cells, the “cell death (viable cells below the number on Day 0)” value is “caused cell death”. Besides, the “Hsp90 protein level (degradation)” value in the assay on Hsp90 is given as “more marked reduction in Hsp90”. Further, the “inhibition of activation of KLK3 by R1881” value in assay [3] was “better inhibitors of gene activation by androgen compared with either Enz or SAHA”. Also, the “hyper-acetylation” value in assay [4] is “hyper-acetylation of a 55 KDa polypeptide”.

Regarding `CNC(=O)c1ccc(N2C(=S)N(c3ccc(C#N)c(C(F)(F)F)c3)C(=O)C2(C)C)cc1F` [Enz, Enzalutamide, reference compound], the “inhibition of activation of TMPRSS2 by R1881” value in assay [1] was “progressive inhibition at higher doses”. Moreover, in the assay on 22Rv1 cells, the “effect on growth of 22Rv1 cells” value is “not”. Besides, in assay [2] (HeLa cell nuclear extract, tested at 10 μM and 25 μM, FIG. 2B), the “inhibition of nuclear HDAC activity” value is recorded as “lacked any HDACi activity”. The “p21 mRNA expression” value in the assay on p21 mRNA in LNCaP cells is reported as “had no effect”. For the same compound, in the assay with C4-2 cells (MTT, Day 3, up to 10 μM, FIG. 6A), the “effect on C4-2 cell growth” value is listed as “could not appreciably affect growth even at a concentration of 10 μM”. In addition, the “Hsp90 protein level (degradation)” value in the assay with Hsp90 is “had no effect”. In assay [3], the “inhibition of activation of KLK3 by R1881” value is listed as “progressive inhibition at higher doses”. In addition, the “hyper-acetylation” value in assay [4] is on record as “not”.
